Patent publication US9656017B2, “Infusion delivery devices and methods” (priority 2014, dated 2017)
No end group written: not given here.

Tests used:
test animals = conditions: treated test animals; e.g. marked hyperlactemia followed by hyperglycemia; cited from earlier work
[1] = Post-injection plasma pramlintide levels for three subcutaneous doses compared with healthy plasma amylin profile; assay type: in vivo, human
From the text: How well do the recommended mealtime injections of pramlintide mimic the healthy plasma amylin profile? […] In the case of three meals per day, these doses would result in three large boluses of pramlintide that spike well above the levels of plasma amylin measured in healthy adults. FIG. 3 superimposes plasma levels of the three subcutaneous doses of pramlintide (FIG. 2) on the plasma amylin profile in healthy adults (FIG. 1).
From an efficacy standpoint, the dose limiting effect of nausea caused by pramlintide plasma spikes reduces daily drug exposure below healthy plasma amylin exposure levels. Daily exposure to endogenous hormone and infused drug can be measured by calculating the areas under the curves (AUCs) in FIG. 3.

[2] = T1D patients, same immunometric assay (FIG. 1-D); cited from earlier work
[3] = 24-hour plasma profiles of endogenous insulin and amylin in healthy adults, basal/bolus AUC analysis; assay type: in vivo, human; conditions: for In Vivo AUC pM × 24 hr / AUC: endogenous; for In Vivo AUC pM × 24 hr: molar; for AUC: human, in vivo, In Vivo AUC μg/L × 24 hr, corrected for molecular weight
From the text: This difference in bolus/basal ratios was quantified by estimating the AUCs of the basal and bolus components, which would reflect the 24-hour hormone exposures attributable to these components.
Comparing AUCs results in the discovery that there is a striking difference between hormones with respect to the importance of bolus exposure compared to basal exposure, as summarized in Table 1. […] See the example in Table 1.
Either this is background amylin expression which been reported in non-beta-cell tissues, or it is nonspecific background noise in the amylin assay. […] The same adjustment should also be made for any background insulin plasma levels.
The following calculations are presented as an example of how appropriate amylin agonist doses can be determined. This insulin-dependent dosing can be achieved by calculating two separate components of pramlintide dosing: (1) the weight ratio of the daily basal component of amylin-to-insulin; and (2) the weight ratio of the daily bolus component of amylin-to-insulin.

[4] = ex vivo gram AUC (bioavailability adjusted)
[5] = in vivo gram AUC (molecular weight adjusted)
[6] = plasma, healthy adults, based upon AUCs

## Pro28-h-amylin (KCNTATCATQRLANFLVHSSNNFGAILPSTNVGSNTY; ends and bridges not checked; cysteine pairing not given here; UniProt P10997 34-70, looked up, variant S28P) [amylin analogue]
Test animals
  amylin activity in vivo: show amylin activity in vivo

## des-Lys1-h-amylin
Test animals
  amylin activity in vivo: show amylin activity in vivo

## Arg18 Pro25 Pro28-h-amylin
Test animals
  amylin activity in vivo: show amylin activity in vivo

## Arg18 Pro25 Pro 28-des-Lys1-h-amylin
Test animals
  amylin activity in vivo: show amylin activity in vivo

## Pro25 Val26 Pro 28 Pro29-h-amylin
Test animals
  amylin activity in vivo: show amylin activity in vivo

## CC[C@H](C)[C@H](NC(=O)[C@@H]1CCCN1C(=O)CNC(=O)[C@H](Cc1ccccc1)NC(=O)[C@H](CC(N)=O)NC(=O)[C@H](CC(N)=O)NC(=O)[C@H](CO)NC(=O)[C@H](CO)NC(=O)[C@H](Cc1c[nH]cn1)NC(=O)[C@@H](NC(=O)[C@H](CC(C)C)NC(=O)[C@H](Cc1ccccc1)NC(=O)[C@H](CC(N)=O)NC(=O)[C@H](C)NC(=O)[C@H](CC(C)C)NC(=O)[C@H](CCCNC(=N)N)NC(=O)[C@H](CCC(N)=O)NC(=O)[C@@H](NC(=O)[C@H](C)NC(=O)[C@@H]1CSSC[C@H](NC(=O)[C@@H](N)CCCCN)C(=O)N[C@@H](CC(N)=O)C(=O)N[C@@H]([C@@H](C)O)C(=O)N[C@@H](C)C(=O)N[C@@H]([C@@H](C)O)C(=O)N1)[C@@H](C)O)C(C)C)C(=O)N[C@@H](CC(C)C)C(=O)N1CCC[C@H]1C(=O)N1CCC[C@H]1C(=O)N[C@H](C(=O)N[C@@H](CC(N)=O)C(=O)N[C@H](C(=O)NCC(=O)N[C@@H](CO)C(=O)N[C@@H](CC(N)=O)C(=O)N[C@H](C(=O)N[C@@H](Cc1ccc(O)cc1)C(N)=O)[C@@H](C)O)C(C)C)[C@@H](C)O [pramlintide, 25,28,29Pro-h-amylin]
Test animals
  amylin activity in vivo: show amylin activity in vivo
[1]; 90 μg dose, three meals per day (FIG. 4)
  24-hour exposure (relative AUC, endogenous amylin = 100%): achieves the healthy, 24-hour physiological exposure
[1]; T1D patients, mealtime SC doses three times daily (FIG. 3)
  plasma levels relative to plasma amylin in healthy adults: supra-physiological (or pharmacological) plasma levels

## CC[C@H](C)[C@H](NC(=O)[C@H](C)NC(=O)CNC(=O)[C@H](Cc1ccccc1)NC(=O)[C@H](CC(N)=O)NC(=O)[C@H](CC(N)=O)NC(=O)[C@H](CO)NC(=O)[C@H](CO)NC(=O)[C@H](Cc1c[nH]cn1)NC(=O)[C@@H](NC(=O)[C@H](CC(C)C)NC(=O)[C@H](Cc1ccccc1)NC(=O)[C@H](CC(N)=O)NC(=O)[C@H](C)NC(=O)[C@H](CC(C)C)NC(=O)[C@H](CCCNC(=N)N)NC(=O)[C@H](CCC(N)=O)NC(=O)[C@@H](NC(=O)[C@H](C)NC(=O)[C@@H]1CSSC[C@H](NC(=O)[C@@H](N)CCCCN)C(=O)N[C@@H](CC(N)=O)C(=O)N[C@@H]([C@@H](C)O)C(=O)N[C@@H](C)C(=O)N[C@@H]([C@@H](C)O)C(=O)N1)[C@@H](C)O)C(C)C)C(=O)N[C@@H](CC(C)C)C(=O)N[C@@H](CO)C(=O)N[C@@H](CO)C(=O)N[C@H](C(=O)N[C@@H](CC(N)=O)C(=O)N[C@H](C(=O)NCC(=O)N[C@@H](CO)C(=O)N[C@@H](CC(N)=O)C(=O)N[C@H](C(=O)N[C@@H](Cc1ccc(O)cc1)C(N)=O)[C@@H](C)O)C(C)C)[C@@H](C)O [Amylin]
[2]
  plasma amylin, average: 1.6 pM
[3]; basal component
  In Vivo AUC pM × 24 hr: 222.79 pM × 24 hr
  AUC: 0.88 ng·h/mL
[3]; bolus component
  In Vivo AUC pM × 24 hr: 135.19 pM × 24 hr
  AUC: 0.534 ng·h/mL
[3]; [4]
  Basal Amylin/Insulin Ratio: 14.8%
  Bolus Amylin/Insulin Ratio: 4.8%
[3]; healthy adults, FIG. 8
  plasma levels as % of insulin levels: less than 5%
[3]; [5]
  Basal Amylin/Insulin Ratio: 7.4%
  Bolus Amylin/Insulin Ratio: 2.4%
[3]; in vivo molar AUC
  Basal Amylin/Insulin Ratio: 10.9%
  Bolus Amylin/Insulin Ratio: 3.5%
[3]; [6]
  Basal as % Total: 62%
  Bolus/Basal Ratio: 0.6
